Measured values reported in ChEMBL document CHEMBL1201862, “PubChem BioAssay data set” (2004).
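Briefly, cells in 96-well plates were exposed to five compound concentrations for 48 h, and endpoints were estimated by linear interpolation. At the GI50, growth is halved.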 Activity calls are given as the source filed them. Cut-off read from the data, not from the text of the source: active = GI50 up to about 1.1 µM and inactive = higher.

Key:
Experiment in all cases: NCI tumour cell line growth inhibition, 48 h
COLO 205 = system: COLO 205
NCI-H226 = system: NCI-H226
SK-MEL-5 = system: SK-MEL-5
A549 = system: A549
K562 = system: K562
M14 = system: M14
DU-145 = system: DU-145
SNB-75 = system: SNB-75
Malme-3M = system: Malme-3M
U-251 = system: U-251
TK-10 = system: TK-10
SK-MEL-28 = system: SK-MEL-28
SK-MEL-2 = system: SK-MEL-2
HL-60 = system: HL-60
OVCAR-5 = system: OVCAR-5
HCT-116 = system: HCT-116
SK-OV-3 = system: SK-OV-3
LOX IMVI = system: LOX IMVI
HOP-62 = system: HOP-62
UACC-62 = system: UACC-62
HOP-92 = system: HOP-92
HCT-15 = system: HCT-15
HT-29 = system: HT-29
ACHN = system: ACHN
Hs-578T = system: Hs-578T
T47D = system: T47D
UACC-257 = system: UACC-257
NCI-H460 = system: NCI-H460
SN12C = system: SN12C
RXF 393 = system: RXF 393
SW-620 = system: SW-620
RPMI-8226 = system: RPMI-8226
CAKI-1 = system: CAKI-1
IGROV-1 = system: IGROV-1
EKVX = system: EKVX
SF-295 = system: SF-295
OVCAR-3 = system: OVCAR-3
NCI/ADR-RES = system: NCI/ADR-RES
MCF7 = system: MCF7
NCI-H522 = system: NCI-H522
MOLT-4 = system: MOLT-4
NCI-H23 = system: NCI-H23
PC-3 = system: PC-3
MDA-MB-231 = system: MDA-MB-231
OVCAR-8 = system: OVCAR-8
MDA-MB-435 = system: MDA-MB-435
SNB-19 = system: SNB-19
SF-268 = system: SF-268
BT-549 = system: BT-549
KM12 = system: KM12
A498 = system: A498
OVCAR-4 = system: OVCAR-4
786-0 = system: 786-0
SR = system: SR
UO-31 = system: UO-31

Question: For `CCC1c2[nH]c3ccccc3c2C[C@H]2C(=O)NC(COC(C)(C)C)C(=O)N12` (stereo not given in full), which GI50 (COLO 205) is on record?
Answer: 19.7 µM (inactive)

Question: What about the GI50 (NCI-H226) of the same compound?
Answer: > 100 µM (inactive)

Question: And the GI50 (SK-MEL-5)?
Answer: 27.8 µM (inactive)

Question: What about the GI50 (A549) of the same compound?
Answer: 39.3 µM (inactive)

Question: What about the GI50 (K562) of the same compound?
Answer: 39.4 µM (inactive)

Question: And the GI50 (M14)?
Answer: 30.1 µM (inactive)

Question: What about the GI50 (DU-145) of the same compound?
Answer: 67.6 µM (inactive)

Question: And the GI50 (SNB-75)?
Answer: 19.8 µM (inactive)

Question: What about the GI50 (Malme-3M) of the same compound?
Answer: 21.7 µM (inactive)

Question: What about the GI50 (U-251) of the same compound?
Answer: 40.7 µM (inactive)

Question: What about the GI50 (TK-10) of the same compound?
Answer: 27.1 µM (inactive)

Question: And the GI50 (SK-MEL-28)?
Answer: 86.3 µM (inactive)

Question: What about the GI50 (SK-MEL-2) of the same compound?
Answer: 32.8 µM (inactive)

Question: What about the GI50 (HL-60) of the same compound?
Answer: 21.3 µM (inactive)

Question: And the GI50 (OVCAR-5)?
Answer: 47.3 µM (inactive)

Question: And the GI50 (HCT-116)?
Answer: 41.6 µM (inactive)

Question: What about the GI50 (SK-OV-3) of the same compound?
Answer: 63 µM (inactive)

Question: And the GI50 (LOX IMVI)?
Answer: 37.3 µM (inactive)

Question: What about the GI50 (HOP-62) of the same compound?
Answer: 76.6 µM (inactive)

Question: What about the GI50 (UACC-62) of the same compound?
Answer: 53.3 µM (inactive)

Question: And the GI50 (HOP-92)?
Answer: 21.2 µM (inactive)

Question: And the GI50 (HCT-15)?
Answer: 48 µM

Question: And the GI50 (HT-29)?
Answer: 38.2 µM (inactive)

Question: What about the GI50 (ACHN) of the same compound?
Answer: 42 µM (inactive)

Question: What about the GI50 (Hs-578T) of the same compound?
Answer: 25.8 µM (inactive)

Question: What about the GI50 (T47D) of the same compound?
Answer: 44.9 µM (inactive)

Question: And the GI50 (UACC-257)?
Answer: 25.2 µM (inactive)

Question: And the GI50 (NCI-H460)?
Answer: 31.2 µM (inactive)

Question: And the GI50 (SN12C)?
Answer: 45.5 µM (inactive)

Question: What about the GI50 (RXF 393) of the same compound?
Answer: 55.5 µM (inactive)

Question: What about the GI50 (SW-620) of the same compound?
Answer: 69 µM (inactive)

Question: And the GI50 (RPMI-8226)?
Answer: 32.4 µM (inactive)

Question: And the GI50 (CAKI-1)?
Answer: 44.9 µM (inactive)

Question: What about the GI50 (IGROV-1) of the same compound?
Answer: 29.8 µM (inactive)

Question: What about the GI50 (EKVX) of the same compound?
Answer: 45.2 µM (inactive)

Question: What about the GI50 (SF-295) of the same compound?
Answer: 19.4 µM (inactive)

Question: What about the GI50 (OVCAR-3) of the same compound?
Answer: 32 µM (inactive)

Question: What about the GI50 (NCI/ADR-RES) of the same compound?
Answer: 40.7 µM (inactive)

Question: What about the GI50 (MCF7) of the same compound?
Answer: 41.8 µM (inactive)

Question: What about the GI50 (NCI-H522) of the same compound?
Answer: 38.5 µM (inactive)

Question: What about the GI50 (MOLT-4) of the same compound?
Answer: 31.4 µM (inactive)

Question: And the GI50 (NCI-H23)?
Answer: 32.9 µM (inactive)

Question: And the GI50 (PC-3)?
Answer: 28.5 µM (inactive)

Question: What about the GI50 (MDA-MB-231) of the same compound?
Answer: 36.9 µM (inactive)

Question: What about the GI50 (OVCAR-8) of the same compound?
Answer: 39.4 µM (inactive)

Question: What about the GI50 (MDA-MB-435) of the same compound?
Answer: 37.7 µM (inactive)

Question: And the GI50 (SNB-19)?
Answer: 49.1 µM (inactive)

Question: And the GI50 (SF-268)?
Answer: 67.3 µM (inactive)

Question: And the GI50 (BT-549)?
Answer: 34 µM (inactive)

Question: And the GI50 (KM12)?
Answer: 27.9 µM (inactive)

Question: And the GI50 (A498)?
Answer: 72.3 µM (inactive)

Question: And the GI50 (OVCAR-4)?
Answer: 39.1 µM (inactive)

Question: And the GI50 (786-0)?
Answer: 61.2 µM (inactive)

Question: What about the GI50 (SR) of the same compound?
Answer: 31.3 µM (inactive)

Question: And the GI50 (UO-31)?
Answer: 38.2 µM (inactive)
